# Laboratory results taken from patent US7081353B2, “Drug susceptibility measurement method and apparatus thereof” (Jikei University School of Medicine, priority 2000, dated 2006).
# Test system: S. epidermidis (Staphilococcus epidermidis)
# Assay: MIC by conventional measurement method, S. epidermidis
# Assay type: cell-based
# Details: 106 cfu/ml, necessary time 18 hours
# Description: The drug susceptibility measurement results are obtained by employing S. epidermidis (Staphilococcus epidermidis), […] (Genus Enterococcus) as bacteria, and by determining an amount of bacteria to be 10^6 cfu/ml. And, PCG (Penicillin G), IPM (Imipenem), MINO (Minocycline), EM (Erythromycin), OFLX (Ofloxacin), ST (Sulfamethoxazole Trimethoprim), […]) are employed as drug.
row,Compound,(a) MIC values (minimum inhibitory interfering concentration) obtained by a conventional measurement method
1,"CC[C@H]1OC(=O)[C@H](C)[C@@H](O[C@H]2C[C@@](C)(OC)[C@@H](O)[C@H](C)O2)[C@H](C)[C@@H](O[C@@H]2O[C@H](C)C[C@H](N(C)C)[C@H]2O)[C@](C)(O)C[C@@H](C)C(=O)[C@H](C)[C@@H](O)[C@]1(C)O [EM, Erythromycin]",≦0.12 g g/ml
2,"C[C@@H](O)[C@H]1C(=O)N2C(C(=O)O)=C(SCCN=CN)C[C@H]12 [IPM, Imipenem]",≦1 g g/ml
3,"CN(C)c1ccc(O)c2c1C[C@H]1C[C@H]3[C@H](N(C)C)C(O)=C(C(N)=O)C(=O)[C@@]3(O)C(O)=C1C2=O [MINO, Minocycline]",≦0.12 g g/ml
4,"CC1COc2c(N3CCN(C)CC3)c(F)cc3c(=O)c(C(=O)O)cn1c23 (centres unmarked) [OFLX, Ofloxacin]",≦1 g g/ml
5,"CN[C@H](CC(C)C)C(=O)N[C@H]1C(=O)N[C@@H](CC(N)=O)C(=O)N[C@H]2C(=O)N[C@H]3C(=O)N[C@H](C(=O)N[C@H](C(=O)O)c4cc(O)cc(O)c4-c4cc3ccc4O)[C@H](O)c3ccc(c(Cl)c3)Oc3cc2cc(c3O[C@@H]2O[C@H](CO)[C@@H](O)[C@H](O)[C@H]2O[C@H]2C[C@](C)(N)[C@H](O)[C@H](C)O2)Oc2ccc(cc2Cl)[C@H]1O [VCM, Vancomycin]",≦1 g g/ml
